Experimental data: patent US20240327406A1, “POTASSIUM CHANNEL MODULATORS” (Autifony Therapeutics Limited, priority 2021, published 2024)
Marks after values point to notes of the source that are not given here.

Key:
[1] = In vitro metabolic stability, rat liver microsomes; assay type: in vitro ADME; conditions: CLint expressed as mL/min/g liver
Experimental: (§1) The objective of this study was to determine metabolic stability of test items in rat and human liver microsomes. Verapamil and dextromethorphan were used as positive controls for microsomal incubation.
(§2) Incubation medium was prepared by combining 11.2 mL of potassium phosphate monobasic and 38.8 mL of potassium phosphate dibasic, diluted to 1 L with water. Cryopreserved microsomes were thawed and kept on ice until use. Microsomes were then diluted in incubation to a protein concentration of 0.56 mg/mL. […]
(§3) NADPH regenerating system solution was prepared by dissolving 1.7 mg of NADP, 7.8 mg of G6P and 6 units of G6P-Dehydrogenase in 1 mL of 2% sodium bicarbonate solution (prepared by dissolving 20 g of NaHCO3 in 1 L of water).
(§4) Test compounds were separately dissolved in DMF to obtain 10 mM stock solutions that were further diluted in water/acetonitrile 50/50 (v/v) to obtain the corresponding 50 μM working solutions. Verapamil and dextromethorphan were dissolved in DMF in order to obtain a 10 mM verapamil solution and 10 mM dextromethorphan solution. These solutions were then diluted in the incubation medium in order to obtain a 50 μM verapamil working solution and a 50 μM dextromethorphan working solution.
(§5) 800 μL-aliquots of NADPH regenerating system were pre-warmed at 37° C. for 5 minutes. 5 μL of 50 µM test compounds, verapamil or dextromethorphan were added to 445 μL of the 0.56 mg/mL microsomes solution and the incubation mixture was pre-warmed in a 96 deep well 2 mL plate (incubation plate) at 37° C. for 5 minutes. The incubation reactions were initiated by adding 50 μL of pre-warmed NADPH regenerating system to the incubation mixtures. 50 μL aliquots were taken from incubation mixtures at: 0, 3, 6, 9, 15, and 30 minutes and the reactions were stopped by adding 100 μL of aceronitrile with the corresponding internal standard. Samples were then diluted with 120 μL of water (final organic solvent percentage at 37%) and centrifuged at 3000 rpm for 10 minutes, prior the LC-MS/MS analysis.
(§6) Metabolic stability was calculated from the peak area ratio of the remaining test compound with internal standard versus time. The intrinsic clearance (CLint) was determined from the first order elimination constant k (min^−1) (obtained from GraphPad by plotting the natural logarithm of the peak area ratio of the remaining test item with internal standard versus time), using the actual volume of the incubation V (mL), the amount of hepatocytes in the incubation M (million cells) and the hepatocellularity number per a liver Hn (120 for human).

[2] = Determination of blood and brain tissue binding (equilibrium dialysis); assay type: in vitro ADME, Sprague Dawley rat; conditions: Sprague Dawley, 5 h at 37° C.; for fraction unbound at 5 h, 5 micromolar: 1:2 (w/v) in artificial CSF, rat brain homogenate, read-out: % FU Brain; for fraction unbound at 5 h, 0.5 micromolar: whole blood diluted 1:1 (v/v) with isotonic phosphate buffer, rat whole blood, read-out: % FU Blood
Experimental: Sprague Dawley rat whole blood, collected on the week of the experiment using K3-EDTA as an anti-coagulant, is diluted with isotonic phosphate buffer 1:1 (v/v). Sprague Dawley rat whole brain, stored frozen at −20° C., is thawed and homogenised in artificial cerebrospinal fluid (CSF) 1:2 (w/v).
An appropriate amount of test compound is dissolved in DMSO to give a 10 millimolar solution. Further dilutions, to obtain a 166.7 micromolar working solution are then prepared using 50% acetonitrile in MilliQ water. This working solution is used to spike the blood to obtain a final concentration of 0.5 micromolar in whole blood. Similarly, the working solution is used to spike brain samples to obtain a final concentration of 5 micromolar in whole brain. From these spiked blood and brain preparations, control samples (n=3), are immediately extracted and used to calculate the initial recovery of the test items.
150 microL of compound-free buffer (isotonic phosphate buffer for blood or artificial CSF buffer for brain) is dispensed in one half-well and 150 microL of spiked matrix (blood or brain) is loaded in the other half-well, with the two halves separated by a semi-permeable membrane. After an equilibration period of 5 h at 37° C., 50 microL of dialysed matrix (blood or brain) is added to 50 microL of corresponding compound-free buffer, and vice-versa for buffer, such that the volume of buffer to matrix (blood or brain) remains the same. Samples are then extracted by protein precipitation with 300 microL of acetonitrile containing rolipram (control for positive ionization mode) or diclofenac (control for negative ionization mode) as internal standards and centrifuged for 10 min at 3000 rpm. Supernatants are collected (100 microL), diluted with 27% AcN in MilliQ water (200 microL) and then injected into an HPLC-MS/MS or UPLC-MS/MS system to determine the concentration of test compound present.
Blood and brain tissue binding are then determined using the following formulas:
where Afu=apparent fraction unbound; Buffer=analyte/internal standard ratio determined in the buffer compartment; Blood=analyte/internal standard ratio determined in the blood compartment; Brain=analyte/internal standard ratio determined in the brain compartment.
where: fucr=Fraction unbound corrected; D=matrix dilution factor (D=2 for blood and D=3 for brain). then: […]

[3] = In vitro metabolic stability, human liver microsomes; assay type: in vitro ADME; conditions: CLint expressed as mL/min/g liver
Experimental: as §1, §2, §3, §4, §5, §6

Kv3.1 = target: T1, Kv3.1 (Homo sapiens, UniProt P48547); conditions: Table 5, RE12 and RE13; based on EC50 value as reported in WO2021214090; cited from earlier work
T1 sequence (P48547 1-511): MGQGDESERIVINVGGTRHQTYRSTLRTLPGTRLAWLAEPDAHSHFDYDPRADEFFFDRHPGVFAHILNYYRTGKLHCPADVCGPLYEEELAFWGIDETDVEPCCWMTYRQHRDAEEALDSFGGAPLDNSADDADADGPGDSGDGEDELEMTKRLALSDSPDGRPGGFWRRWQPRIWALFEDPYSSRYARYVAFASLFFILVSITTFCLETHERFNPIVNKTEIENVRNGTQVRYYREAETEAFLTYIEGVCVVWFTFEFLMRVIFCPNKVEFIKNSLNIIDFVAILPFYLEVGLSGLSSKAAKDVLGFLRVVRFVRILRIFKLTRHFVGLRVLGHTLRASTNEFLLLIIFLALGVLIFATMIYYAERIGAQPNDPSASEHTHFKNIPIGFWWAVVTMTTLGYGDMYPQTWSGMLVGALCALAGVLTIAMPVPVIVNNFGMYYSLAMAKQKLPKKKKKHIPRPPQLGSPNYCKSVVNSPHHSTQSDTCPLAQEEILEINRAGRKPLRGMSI

Cli rat [1]	fraction unbound at 5 h, 5 micromolar [2]	fraction unbound at 5 h, 0.5 micromolar [2]	Cli human [3]	Compound	Kv3.1 pEC50 (Kv3.1)
1.3 mL/min/g	0.005	0.013	0.6 mL/min/g	Cc1ccc(Oc2ccc(-n3c(=O)[nH]c4cnccc43)cn2)cc1OC(F)(F)F [RE13, reference compound]	5.6**
1.5 mL/min/g	0.006	0.007	1.7 mL/min/g	Cc1ccc(Oc2ccc(-n3c(=O)[nH]c4cncnc43)cn2)cc1OC(F)(F)F [RE12, reference compound]	5.2*
